Two molecules from publication PMC11926855, “Photochemistry of Receptor-Bound Flavin Resolved in Living Human Cells by Infrared Spectroscopy” (Journal of the American Chemical Society, 2025) can be followed below.

For assay [1], the target named is T1, LOV (LOV sensor of aureochrome1a) (Phaeodactylum tricornutum, UniProt A0A140UHJ0, I28V).
T1 construct: isolated LOV sensor domain without bZIP effector; transiently transfected HEK cells, also E. coli cells and in vitro
The assay can be described thus: light-induced FTIR difference spectroscopy in vitro. Type of assay: binding. Particulars: wild type compared with I264V; covalent photoadduct with Cys287 on illumination.

Assay [2] concerns the target T2, LOV (LOV sensor of aureochrome1a) (Phaeodactylum tricornutum, UniProt A0A140UHJ0, I28V, form not given).
T2 construct: isolated LOV sensor domain without bZIP effector; transiently transfected HEK cells, also E. coli cells and in vitro
The assay can be described thus: light-induced in-cell ATR-FTIR difference spectroscopy (ICIRD). Type of assay: cell-based. Particulars: living HEK cells, 37 °C, blue light; covalent photoadduct with Cys287 on illumination, noncovalent in dark; also in vitro and E. coli cells.

Assay [3] addresses T3, pCRY-PHR (Chlamydomonas reinhardtii, UniProt Q42696).
T3 construct: gene CPH1; photolyase homology region (PHR) without CCT, mCherry fused as reporter; stably transfected HEK cells, also E. coli cells
The assay is described as above. Type of assay: cell-based. The note with it: living HEK cells, 37 °C, blue light; noncovalent; oxidized flavin to flavin neutral radical.

T3 sequence (Q42696 entry or part of it): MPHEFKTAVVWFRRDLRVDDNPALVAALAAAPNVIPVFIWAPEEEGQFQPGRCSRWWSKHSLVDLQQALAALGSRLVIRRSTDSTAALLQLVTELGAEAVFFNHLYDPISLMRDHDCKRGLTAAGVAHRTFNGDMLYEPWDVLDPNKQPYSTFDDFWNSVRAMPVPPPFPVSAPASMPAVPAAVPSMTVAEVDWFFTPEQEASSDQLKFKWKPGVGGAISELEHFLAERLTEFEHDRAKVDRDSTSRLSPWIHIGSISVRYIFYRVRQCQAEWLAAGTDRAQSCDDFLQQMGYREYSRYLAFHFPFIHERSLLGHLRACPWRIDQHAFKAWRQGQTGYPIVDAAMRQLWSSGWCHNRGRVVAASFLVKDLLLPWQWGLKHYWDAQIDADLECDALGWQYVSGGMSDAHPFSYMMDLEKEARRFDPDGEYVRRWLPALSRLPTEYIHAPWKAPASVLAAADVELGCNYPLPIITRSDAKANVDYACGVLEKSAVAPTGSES
T1 sequence (A0A140UHJ0 entry or part of it I28V): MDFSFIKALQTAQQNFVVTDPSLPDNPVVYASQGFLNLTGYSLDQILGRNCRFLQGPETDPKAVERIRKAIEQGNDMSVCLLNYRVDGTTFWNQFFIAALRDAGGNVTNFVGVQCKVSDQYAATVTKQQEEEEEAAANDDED
T2 sequence (A0A140UHJ0 entry or part of it I28V, form open): as the sequence (A0A140UHJ0 entry or part of it I28V) above

Take `Cc1cc2nc3c(=O)[nH]c(=O)nc-3n(C[C@H](O)[C@H](O)[C@H](O)COP(=O)(O)O)c2cc1C` [flavin mononucleotide]: the “light-induced FTIR difference spectroscopy in vitro” value in assay [1] was “without altering the mechanism (Figure S6A)”. Further, the “light-induced in-cell ATR-FTIR difference spectroscopy (ICIRD)” value in assay [2] was “formation of the cysteine adduct from the oxidized flavin”.

As to `Cc1cc2nc3c(=O)[nH]c(=O)nc-3n(C[C@H](O)[C@H](O)[C@H](O)COP(=O)(O)OP(=O)(O)OC[C@H]3O[C@@H](n4cnc5c(N)ncnc54)[C@H](O)[C@@H]3O)c2cc1C` [flavin adenine dinucleotide], in assay [3], the “light-induced in-cell ATR-FTIR difference spectroscopy (ICIRD)” value was “photoreaction of the oxidized flavin to the flavin neutral radical in pCRY-PHR”.
